{"source": "patent US8703066B2", "about": "“Sterilization system and method” (Noxilizer, Inc., priority 2004, dated 2014)", "key": {"[1]": {"tested_on": "sporulated B. subtilis var. niger", "experiment": "Sterilization with varying quantities of delivered nitric oxide, contaminated stainless steel strips", "format": "cell-based", "conditions": "5%, 2.5% and 1% NO in air, five minutes, culture in LB 48 hours then plating", "source_text": "A blood storage container (Nexell, Irvine, Calif.; Lifecell PL732 plastic tissue culture flask) is used as the sterilization chamber. Strips of stainless steel are dipped in 10^6 CFU/ml sporulated B. subtilis var. niger (as determined by ABS595 standardization curves). The strips are allowed to air dry, placed in the sterilization chamber, and then the sterilization chamber is heat sealed. The sterilization chamber is evacuated using a syringe and controlling air flow with the sterilization chamber valves. A known quantity of air is added to the vessel using a graduated syringe.\nAn NO-generating donor compound is placed in a 7 cc gas generation chamber. The gas generation chamber is attached to the storage container through luer lock connectors. The liquid activator, 3.0N HCl is added to the gas generation chamber and the generated gas is allowed to flow into the sterilization chamber. After a brief generation period, the gas is sealed in the sterilization chamber using a compression valve.\nVarying quantities of NO gas, namely 10%, 5%, 2.5% and 1% NO, are tested for their efficacy in the sterilization chamber. The quantity (%) of NO gas generated and added to the sterilization chamber is calculated from the number of moles of NO required to be generated to result in the desired percentage of NO. […]"}, "[2]": {"tested_on": "Bacillus subtilis var niger 9372", "experiment": "Pressure vessel sterilization of contaminated stainless steel coupons with NO gas", "format": "cell-based", "conditions": "five minute sterilization cycle; pure NO at atmospheric pressure; stainless steel coupons dipped in at least 10^8 CFU/ml", "source_text": "(§1) A glass pressure vessel is connected to a scrubbed NO gas tank source. The pressure vessel is purged five times with Argon gas to eliminate atmospheric oxygen (preventing formation of NO2.) and an additional three purges of NO are used to ensure a pure NO atmosphere and consistent results of bactericidal activity. To test the sterilization method: Bacillus subtilis var niger 9372 is used (after obtaining >80% endospore formation; a standard for ethylene oxide and autoclave test sterilization), as well as organisms commonly found on the epidermis: Staphylococcus aureus (str 21769) and Staphylococcus epidermides (str 21977), and the enteric organisms: Klebsiella pneumoniae (str 21991) and Serratia marcesens (str 21140). This particular Serratia strain has been found in previous studies to be one of the most resistant bacteria to the bactericidal effects of NO in culture (Raulli et al., 2002).\n(§2) The organisms are cultured overnight in BHI. The cultures contained at least 10^8 CFU/ml based on standardized ABS595 curves for each organism. Stainless steel coupons, 3×1 cm, are dipped in the cultures, and either dried in ambient air first or placed in the pressure vessel still wet from the culture dip. The coupons are exposed to NO gas at atmospheric pressure for decreasing time periods starting with 45 min and working back to 5 min. Control samples are handled identically, except the pressure vessel was gassed with nitrogen.\n(§3) The sealed vessel is carefully opened in a laminar flow hood after all the NO had been purged with Argon. The samples are removed aseptically with sterilized tongs and placed in culture tubes containing sterile BHI media. The samples are incubated in a vigorously shaking waterbath at 35° C. The samples are observed (digitally photographed) 24 hrs later, placed back in the waterbath and are measured for absorbance 72 hrs later. The controls had >10^8 CFU/ml after 24 hrs."}, "[3]": {"tested_on": "Klebsiella pneumoniae (str 21991)", "experiment": "Pressure vessel sterilization of contaminated stainless steel coupons with NO gas", "format": "cell-based", "conditions": "five minute sterilization cycle; pure NO at atmospheric pressure; stainless steel coupons dipped in at least 10^8 CFU/ml", "source_text": "as §1, §2, §3"}, "[4]": {"tested_on": "Serratia marcesens (str 21140)", "experiment": "Pressure vessel sterilization of contaminated stainless steel coupons with NO gas", "format": "cell-based", "conditions": "five minute sterilization cycle; pure NO at atmospheric pressure; stainless steel coupons dipped in at least 10^8 CFU/ml", "source_text": "as §1, §2, §3"}, "[5]": {"tested_on": "Staphylococcus aureus (str 21769)", "experiment": "Pressure vessel sterilization of contaminated stainless steel coupons with NO gas", "format": "cell-based", "conditions": "five minute sterilization cycle; pure NO at atmospheric pressure; stainless steel coupons dipped in at least 10^8 CFU/ml", "source_text": "as §1, §2, §3"}, "[6]": {"tested_on": "Staphylococcus epidermides (str 21977)", "experiment": "Pressure vessel sterilization of contaminated stainless steel coupons with NO gas", "format": "cell-based", "conditions": "five minute sterilization cycle; pure NO at atmospheric pressure; stainless steel coupons dipped in at least 10^8 CFU/ml", "source_text": "as §1, §2, §3"}, "[7]": {"tested_on": "Bacillus subtilis (spore)", "experiment": "Portable system (blood storage container) sterilization of stainless steel coupons", "format": "cell-based", "conditions": "fifteen minute sterilization cycle; NO from acidified diazeniumdiolate; 1 ATM; stainless steel coupon, at least 10^8 CFU/ml", "source_text": "(§4) Similar to Example 1, a portable system is devised using blood storage containers and other laboratory items. In this construct, a blood storage container (Nexell, Irvine, Calif.; Lifecell PL732 plastic tissue culture flask) serves as the sterilization chamber. It has multiple ports, is easily attached to tubing or other chambers, and is easily cut and heat sealed for insertion and removal of contaminated/sterilized samples. The heat seal is strong and holds well at pressure, even though 1 ATM of pressure is used experimentally. Two 60 ml syringes connected to each other and a line of tubing by a three-way stopcock are employed to mix acidic buffer in one syringe with NO-releasing diazeniumdiolate in the other syringe. The tubing is connected to the blood container/sterilization chamber.\n(§5) The stopcock is turned so that the acidic buffer can be added to the syringe containing the diazeniumdiolate. The valve is immediately closed to the buffer syringe and opened to the sterilization chamber. The 300 cc sterilization chamber inflates in about 15 seconds. Experiments are performed as described above, except that the devised system is used instead of the pressure vessel.\n(§6) The test organisms are cultured overnight in BHI. The cultures contained at least 10^8 CFU/ml (100-fold greater than FDA testing guidelines) based on standardized ABS595 curves for each organism. Stainless steel coupons, 3×1 cm, are dipped in the cultures, and either dried in ambient air first or placed in the pressure vessel still wet from the culture dip. The dried samples are dipped in sterile BHI media before being placed in the sterilization chamber."}, "[8]": {"tested_on": "Serratia marcesens", "experiment": "Portable system (blood storage container) sterilization of stainless steel coupons", "format": "cell-based", "conditions": "fifteen minute sterilization cycle; NO from acidified diazeniumdiolate; 1 ATM; stainless steel coupon, at least 10^8 CFU/ml", "source_text": "as §4, §5, §6"}, "[9]": {"tested_on": "Staphylococcus epidermides", "experiment": "Portable system (blood storage container) sterilization of stainless steel coupons", "format": "cell-based", "conditions": "fifteen minute sterilization cycle; NO from acidified diazeniumdiolate; 1 ATM; stainless steel coupon, at least 10^8 CFU/ml", "source_text": "as §4, §5, §6"}, "[10]": {"tested_on": "B. subtilis (vegetative)", "experiment": "Portable system (blood storage container) sterilization of stainless steel coupons", "format": "cell-based, Bacillus subtilis", "conditions": "fifteen minute sterilization cycle; NO from acidified diazeniumdiolate; 1 ATM; stainless steel coupon, at least 10^8 CFU/ml", "source_text": "as §4, §5\nThe test organisms are cultured overnight in BHI. The cultures contained at least 10^8 CFU/ml (100-fold greater than FDA testing guidelines) based on standardized ABS595 curves for each organism. […]"}, "[11]": {"tested_on": "bacterial cocktail containing B. subtilis, S. marcesens, and S. epidermides", "experiment": "Sterilization of medical materials (tubing, needle)", "format": "cell-based", "conditions": "15 min sterilization cycle, about 10^8 total CFU/ml", "method": "An additional study is performed to test medically relevant materials such as needles and plastic tubing. Teflon (⅛′ ID), polyethylene (1.77 mm ID), vinyl (0.5 mm ID) tubing and a 30 ga. disposable needle are dipped in a bacterial cocktail containing B. subtilis, S. marcesens, and S. epidermides at about 10^8 total CFU/ml The samples are placed in the sterilization chamber and sealed. In each case, the lumen of the tubing or contained at least some visually confirmed inoculum. […] The controls for each material reached at least 10^6 total CFU/ml in 24 hrs as determined by ABS595 standardization curves."}, "[12]": {"tested_on": "cocktail of bacteria", "experiment": "Humidity effects: sterilization of sealed and unsealed dry stainless steel coupons", "format": "cell-based", "conditions": "15 min sterilization cycle at 1 ATM, 2/2 trials", "method": "Several humidifying paradigms and the ability to sterilize through a gas sterilization seal pouch is tested. A cocktail of bacteria is used, all grown to about 10^8 CFU/ml and mixed in equal volume. Stainless steel coupons are dipped, allowed to dry, and subject to one of three methods. Method A samples are wrapped in a moist Kimwipe, Method B samples are left dry, and Method C samples are sealed, dry, in a V. Mueller™ Dual Peel Seal Pouch, designed for gas and autoclave sterilizations. Samples from methods B and C are placed in the sterilization chamber with a moist Kimwipe, which is placed in the chamber so as to insure maximal separation of the Kimwipe and the sample to be sterilized. The chamber is re-sealed carefully so as not to disturb the positioning of the samples relative to the Kimwipe. The samples are subject to a 15 min sterilization cycle at 1 ATM, removed under sterile conditions, and the samples are placed in BHI media as described above. Control samples are handled identically except for the chamber being gassed with […]. All controls reached greater than […] total CFU/ml in 24 hrs as determined by ABS595 standardization curves."}}}
{"molecule": "[N]=O", "note": "[NO, nitric oxide]", "values": [{"measurement": "killing of 10^6 CFU/ml sporulated B. subtilis var. niger", "setting": "[1]", "result": "effective at killing"}, {"measurement": "Killed (trials with no bacterial growth / trials)", "setting": "[2]", "result": "3/3 Killed"}, {"measurement": "Killed (trials with no bacterial growth / trials)", "setting": "[3]", "result": "3/3 Killed"}, {"measurement": "Killed (trials with no bacterial growth / trials)", "setting": "[4]", "result": "3/3 Killed"}, {"measurement": "Killed (trials with no bacterial growth / trials)", "setting": "[5]", "result": "3/3 Killed"}, {"measurement": "Killed (trials with no bacterial growth / trials)", "setting": "[6]", "result": "3/3 Killed"}, {"measurement": "Killed (trials)", "setting": "[7]", "result": "2/2 Killed"}, {"measurement": "Killed (trials)", "setting": "[8]", "result": "3/3 Killed"}, {"measurement": "Killed (trials)", "setting": "[9]", "result": "3/3 Killed"}, {"measurement": "Killed (trials)", "setting": "[10]", "result": "2/2 Killed"}, {"measurement": "Killed (trials)", "setting": "[11]; Disposable Needle 30 ga.", "result": "2/2 Killed"}, {"measurement": "Killed (trials)", "setting": "[11]; Polyethylene Tubing 1.77 mm ID", "result": "2/2 Killed"}, {"measurement": "Killed (trials)", "setting": "[11]; Teflon Tubing 1/8' ID", "result": "2/2 Killed"}, {"measurement": "Killed (trials)", "setting": "[11]; Vinyl Tubing 0.5 mm ID", "result": "2/2 Killed"}, {"measurement": "Killed (trials)", "setting": "[12]; Method A Moist Kimwipe Wrap", "result": "Killed"}, {"measurement": "Killed (trials)", "setting": "[12]; Method B Dry sample, moist Kimwipe apart in chamber", "result": "Killed"}, {"measurement": "Killed (trials)", "setting": "[12]; Method C Dry, Sealed Sample in Dual Peel Seal Pouch, moist Kimwipe apart in chamber", "result": "Killed"}]}
